According to ChEMBL document CHEMBL3272018, “Synthesis of aziridinylallylaminophosphine oxides and sulfides as potential adjuvant cancer chemotherapeutic agents” (J Med Chem, 1976):

Assays:
[1] = tested on: Musca domestica; assay: Toxicity in mixed sex house flies assessed as sterility at 1% administered in sugar relative to control; assay type: organism-based; details: in vivo, po
[2] = tested on: Musca domestica; assay: Toxicity in male house fly assessed as sterility; assay type: organism-based; details: in vivo

Structure (SMILES): C=CCN(C1=CCCCC1)P(=O)(N1CC1C)N1CC1C (configuration not stated)
- Activity [1]: 82%
- Activity [2]: Non-toxic
